From ChEMBL document CHEMBL1143067, “Novel nitrogen mustard-armed combi-molecules for the selective targeting of epidermal growth factor receptor overexperessing solid tumors: discovery of an unusual structure-activity relationship” (J Med Chem, 2007)
The source made the active and inactive calls. No cut-off for these calls is given here.

Experiments:
NIH3T3 [1] = assay: Inhibition of serum-stimulated growth of NIH3T3 cells after 3 days by SRB assay
[2] = target: Epidermal growth factor receptor (Homo sapiens, UniProt P00533); assay: Inhibition of EGFR tyrosine kinase expressed in A431 cells
DU-145 [3] = assay: Growth inhibition of human DU145 cells after 3 days by SRB assay
NIH3T3 [4] = assay: Inhibition of serum-stimulated growth of NIH3T3 cells transfected with HER14 after 3 days by SRB assay
DU-145 [5] = assay: Induction of cell cycle arrest in human DU145 cells assessed as accumulation at mid-S phase at 10 uM after 24 hrs by flow cytometry; assay type: functional, cell-based
DU-145 [6] = assay: Induction of DNA interstand cross links in human DU145 cells assessed as decrease in comet tail moment after irradiation by single cell gel electrophoresis assay; assay type: functional, cell-based
DU-145 [7] = assay: Induction of cell cycle arrest in human DU145 cells assessed as accumulation at G1 phase at 10 uM after 24 hrs by flow cytometry; assay type: functional, cell-based

Sequence of Epidermal growth factor receptor (P00533 whole entry): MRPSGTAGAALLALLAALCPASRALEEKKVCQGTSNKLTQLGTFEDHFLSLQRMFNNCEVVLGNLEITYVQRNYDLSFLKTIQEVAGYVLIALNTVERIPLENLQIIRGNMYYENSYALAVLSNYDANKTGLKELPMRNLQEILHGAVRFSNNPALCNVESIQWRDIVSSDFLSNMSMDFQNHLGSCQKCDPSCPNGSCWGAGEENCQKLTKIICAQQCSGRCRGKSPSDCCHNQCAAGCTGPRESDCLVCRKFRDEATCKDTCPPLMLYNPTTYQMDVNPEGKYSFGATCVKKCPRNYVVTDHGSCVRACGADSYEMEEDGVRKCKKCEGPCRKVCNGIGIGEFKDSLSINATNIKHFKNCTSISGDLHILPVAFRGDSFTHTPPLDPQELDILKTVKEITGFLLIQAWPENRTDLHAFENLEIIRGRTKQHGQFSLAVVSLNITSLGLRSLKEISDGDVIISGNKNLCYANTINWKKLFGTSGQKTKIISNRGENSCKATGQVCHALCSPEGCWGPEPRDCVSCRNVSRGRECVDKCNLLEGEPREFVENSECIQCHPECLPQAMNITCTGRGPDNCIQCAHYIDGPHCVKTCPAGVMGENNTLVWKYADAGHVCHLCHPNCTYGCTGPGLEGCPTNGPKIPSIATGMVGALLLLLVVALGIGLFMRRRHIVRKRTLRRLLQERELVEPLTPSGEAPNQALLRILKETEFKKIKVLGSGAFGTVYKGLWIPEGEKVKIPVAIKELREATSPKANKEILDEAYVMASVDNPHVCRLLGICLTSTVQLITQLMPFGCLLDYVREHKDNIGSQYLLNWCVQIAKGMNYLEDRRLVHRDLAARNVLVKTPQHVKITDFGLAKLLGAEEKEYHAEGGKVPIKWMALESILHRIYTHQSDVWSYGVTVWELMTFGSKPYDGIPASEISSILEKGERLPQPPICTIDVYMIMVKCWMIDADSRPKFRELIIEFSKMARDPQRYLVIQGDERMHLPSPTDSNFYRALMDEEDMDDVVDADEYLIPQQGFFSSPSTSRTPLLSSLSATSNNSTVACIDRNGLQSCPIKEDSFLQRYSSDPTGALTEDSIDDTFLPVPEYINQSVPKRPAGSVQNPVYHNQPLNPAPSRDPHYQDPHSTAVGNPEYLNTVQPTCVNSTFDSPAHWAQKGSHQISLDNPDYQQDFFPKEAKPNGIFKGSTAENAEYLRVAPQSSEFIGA

| Compound | IC50 (NIH3T3 [1]; Mus musculus, NIH3T3, 72 h) [µM] | IC50 [2] [µM] | IC50 (DU-145 [3]; Homo sapiens, DU-145, 72 h) [µM] | IC50 (NIH3T3 [4]; Mus musculus, NIH3T3, 72 h) [µM] | Activity (DU-145 [5]) | Activity (DU-145 [6]) | Activity (DU-145 [7]) | IC50 (NIH3T3 [1]; nih3t3) [µM] | IC50 (DU-145 [3]; du-145) [µM] | IC50 (NIH3T3 [4]; nih3t3) [µM] |
| --- | --- | --- | --- | --- | --- | --- | --- | --- | --- | --- |
| COc1ccc(N(CCN=NNc2ccc3ncnc(Nc4cccc(Cl)c4)c3c2)CC(C)Cl)cc1 (stereo not given) | 21.5 | 0.97 | 11.4 | 5.75 | – | – | – | – | – | – |
| CN(CCCl)CCN/N=N/c1ccc2ncnc(Nc3cccc(Cl)c3)c2c1 | 27.2 | 0.0044 | 2.6 | 1.31 | Active | Dose-dependent effect | Active | – | – | – |
| COc1ccc(N(CCCl)CCN/N=N/c2ccc3ncnc(Nc4cccc(Cl)c4)c3c2)cc1 | 9.07 | 3.96 | 7.95 | 6.22 | – | – | – | – | – | – |
| Nc1ccc2ncnc(Nc3cccc(Cl)c3)c2c1 | – | – | – | – | – | – | – | 38.4 | 34.1 | 3.19 |
| CN(C)CCN/N=N/c1ccc2ncnc(Nc3cccc(Cl)c3)c2c1 | 39.5 | 0.037 | 37.2 | 1.67 | – | – | – | – | – | – |
| ClCCN(CCNN=Nc1ccc2ncnc(Nc3cccc(Cl)c3)c2c1)c1ccc(Cl)cc1 | 27.6 | 2.2 | 4.7 | 12 | – | – | – | – | – | – |
| ClCCN(CCNN=Nc1ccc2ncnc(Nc3cccc(Cl)c3)c2c1)Cc1ccccc1 | 15.2 | 0.071 | 10.6 | 2.93 | – | – | – | – | – | – |
